# From PubChem BioAssay AID855 (Emory University Molecular Libraries Screening Center, 2007)
# Activity calls are given as the source filed them. How the calls were made is not given here.
# Target: Eukaryotic translation initiation factor 4E (Mus musculus) + Eukaryotic translation initiation factor 4 gamma 1 (Homo sapiens) (UniProt P63073+Q04637)
# Assay: eIF4E–eIF4G protein interaction inhibitors, dose response, biochemical, TR-FRET (AID 855)
# Conditions: eIF4E/eIF4G binding, TR-FRET 665/620 nm
# Eukaryotic translation initiation factor 4E (Mus musculus) + Eukaryotic translation initiation factor 4 gamma 1 (Homo sapiens), sequence (P63073 whole entry, looked up): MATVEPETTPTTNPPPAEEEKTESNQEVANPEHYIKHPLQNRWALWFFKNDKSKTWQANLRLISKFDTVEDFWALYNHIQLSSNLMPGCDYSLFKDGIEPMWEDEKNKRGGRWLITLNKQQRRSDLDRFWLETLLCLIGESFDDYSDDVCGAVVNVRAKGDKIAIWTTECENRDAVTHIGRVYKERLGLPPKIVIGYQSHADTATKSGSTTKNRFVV
# Eukaryotic translation initiation factor 4E (Mus musculus) + Eukaryotic translation initiation factor 4 gamma 1 (Homo sapiens), sequence (Q04637 whole entry, looked up): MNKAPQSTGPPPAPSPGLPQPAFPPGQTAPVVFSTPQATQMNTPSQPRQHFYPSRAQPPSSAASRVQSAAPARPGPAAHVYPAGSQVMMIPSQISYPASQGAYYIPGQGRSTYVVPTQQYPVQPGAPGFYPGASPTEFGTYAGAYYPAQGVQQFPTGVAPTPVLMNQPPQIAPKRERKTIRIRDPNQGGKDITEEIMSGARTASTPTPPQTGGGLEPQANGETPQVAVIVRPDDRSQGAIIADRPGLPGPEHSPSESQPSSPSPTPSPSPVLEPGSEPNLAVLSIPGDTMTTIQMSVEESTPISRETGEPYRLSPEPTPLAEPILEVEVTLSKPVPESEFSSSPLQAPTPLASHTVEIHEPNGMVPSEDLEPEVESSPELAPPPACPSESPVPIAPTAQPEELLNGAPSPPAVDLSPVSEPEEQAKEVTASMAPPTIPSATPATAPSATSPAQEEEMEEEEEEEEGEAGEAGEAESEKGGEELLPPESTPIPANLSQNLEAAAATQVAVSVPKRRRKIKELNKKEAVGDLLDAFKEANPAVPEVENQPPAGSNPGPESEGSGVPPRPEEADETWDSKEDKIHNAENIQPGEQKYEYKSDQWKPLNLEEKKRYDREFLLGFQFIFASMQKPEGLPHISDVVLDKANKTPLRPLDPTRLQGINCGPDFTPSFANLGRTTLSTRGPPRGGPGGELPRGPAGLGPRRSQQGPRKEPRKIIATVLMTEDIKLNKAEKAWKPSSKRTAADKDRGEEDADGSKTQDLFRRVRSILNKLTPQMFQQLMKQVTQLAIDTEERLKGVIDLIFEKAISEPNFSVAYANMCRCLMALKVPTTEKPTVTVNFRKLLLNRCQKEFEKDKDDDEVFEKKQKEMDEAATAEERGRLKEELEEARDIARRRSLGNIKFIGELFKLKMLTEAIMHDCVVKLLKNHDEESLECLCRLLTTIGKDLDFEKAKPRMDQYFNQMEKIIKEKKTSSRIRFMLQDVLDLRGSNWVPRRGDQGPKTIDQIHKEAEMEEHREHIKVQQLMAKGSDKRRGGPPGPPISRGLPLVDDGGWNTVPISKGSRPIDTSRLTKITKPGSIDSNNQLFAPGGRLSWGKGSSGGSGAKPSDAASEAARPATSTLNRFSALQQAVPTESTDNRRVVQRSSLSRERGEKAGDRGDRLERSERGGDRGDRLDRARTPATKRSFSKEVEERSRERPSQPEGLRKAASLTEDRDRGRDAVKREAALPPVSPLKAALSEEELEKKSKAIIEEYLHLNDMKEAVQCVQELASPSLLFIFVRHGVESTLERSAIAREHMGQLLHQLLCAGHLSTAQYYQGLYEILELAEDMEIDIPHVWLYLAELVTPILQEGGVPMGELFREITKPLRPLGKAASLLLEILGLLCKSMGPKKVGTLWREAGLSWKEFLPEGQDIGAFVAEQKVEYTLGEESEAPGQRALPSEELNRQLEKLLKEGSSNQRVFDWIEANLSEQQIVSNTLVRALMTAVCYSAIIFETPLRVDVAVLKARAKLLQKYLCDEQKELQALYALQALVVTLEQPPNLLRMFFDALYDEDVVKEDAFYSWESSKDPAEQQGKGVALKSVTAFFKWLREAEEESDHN
row,SMILES,IC50
1,O=C1CC(c2ccco2)CC(O)=C1C=Nc1cc(Cl)cc(Cl)c1 (stereo not given),> 64 µM (inactive)

# Same assay, conditions: eIF4E/eIF4G binding, TR-FRET 665/620 nm; at 64 µM (top of the series)
row,SMILES,"percent of control, lower = inhibition"
1,COc1ccc(C(=O)Nc2ccc3oc(Cc4ccc(Cl)cc4)nc3c2)cc1OC,inactive
2,COc1c(Cl)cc(-c2noc(C)c2C(=O)NC(C)C)cc1Cl,inactive
3,COc1cc(CC(=O)Nc2ccc3c(c2)CCC3)cc(OC)c1OC,inactive
4,Cc1[nH]n(-c2ccccc2)c(=S)c1C=Nc1cccc([N+](=O)[O-])c1,inactive
5,CCOC(=O)C(C)n1ncn2cccc2c1=O (stereo not given),inactive
6,CCOC(=O)c1c(NC(=O)c2cc(-c3ccc(O)cc3)on2)sc(C(C)=O)c1C,inactive
7,Cc1noc(C)c1CSc1nc2cc(S(=O)(=O)N3CCOCC3)ccc2o1,inactive
8,Cc1nn(CCC#N)c2c1P(=S)(N1CCCC1)OC(c1ccc(F)cc1)=N2 (stereo not given),inactive
9,CCN=C(N/N=C/c1ccc([N+](=O)[O-])cc1)SC,inactive
10,O=C(/N=C1\NC(=O)C(F)(C(F)(F)F)S1)NC1CCCCC1 (stereo not given),inactive
11,O=C(NC1CCCC1)c1cnc2n(c1=O)CCS2,inactive
12,O=C(Nc1nnc(C23CC4CC(CC(C4)C2)C3)s1)c1ccc(N2C(=O)CCC2=O)cc1,inactive
13,O=C(CSCC(=O)Nc1ccc2ccccc2c1)NCc1ccccc1,inactive
14,CCOc1ccc(-c2nc(=S)[nH][nH]2)cc1,inactive
15,CC(=O)Nc1ccc(S(=O)(=O)NNC(=O)COc2cccc(C)c2)cc1,inactive
16,CCn1c2ccccc2c2nc3cc(S(=O)(=O)N4CCOCC4)ccc3nc21,inactive
17,CCN(CC)S(=O)(=O)c1ccc(Cl)c(C(=O)Oc2cccnc2)c1,inactive
18,O=C(OCCN1C(=O)c2cccc3c(N4CCOCC4)ccc(c23)C1=O)c1cc(Cl)cc(Cl)c1,inactive
19,N#C/C(=C\c1sc(N2CCOCC2)nc1-c1ccccc1)C(=O)Nc1cccc2ccccc12,inactive
20,O=C(N/N=C/c1ccccc1O)c1cc(=O)[nH]c2ccccc12,inactive
21,CC(=O)Nc1ccnc(-c2cccnc2)n1,inactive
22,CCn1c(C2CC(=O)N(Cc3ccccc3)C2)nc2ccccc21 (stereo not given),inactive
23,CN1CCCN(Cc2ccccc2C(F)(F)F)CC1,inactive
24,Cc1cc(NC(=O)CSc2ccccc2)no1,inactive
25,CCC(C(=O)NC(C)CCc1ccco1)n1nc(C)n2c(cc3occc32)c1=O (stereo not given),inactive
26,CCOC(=O)c1ccccc1NC(=O)Cn1cnc2c(nnn2-c2ccc(C)cc2)c1=O,inactive
27,CCNC(=O)c1ccc(CSc2ccc(Cl)cc2)cc1,inactive
28,C=CCNC(=O)COc1cc(C)ccc1C,inactive
29,O=C(CCn1[nH]c(=O)c2ccccc2c1=O)NCCO,inactive
